US5190956A, “Certain N-substituted 3-oximino-2,4-dioxoquinolin-2,4-(1H)diones useful for treating viral infections” (Schering Corporation, priority 1990, dated 1993)

Assays:
[1] = Cytotoxicity, 3H-LEU assay (inhibition of HeLa cell translation); format: cell-based; details: human; HeLa cells, tritiated leucine incorporation after overnight/24 hrs treatment; read-out: CYTOTOXICITY 3H-LEU ASSAY IC50
Method: HeLa cells were treated with inhibitory compound for 24 hrs, after which levels of translational activity were assayed.
For assay of translational activity, HeLa cultures were grown to 80% confluency in 96 well microtiter plates, treated with appropriate concentrations of compound in 2% EMEM during an overnight incubation at 37° C., then rinsed with HBSS and overlaid with […] of 2% EMEM containing 8 uCi of tritiated leucine (^3 H-LEU, 141 Cu/mMol, Amersham Corp., Arlington Heights Ill.). After a 1 hr incubation at 36.5° C., the cells were rinsed twice with phosphate buffered saline (PBS) and lysed in 400 ul/well of 1×PBS, 0.5% sodium dodecyl sulphate (SDS). After a 10 min incubation at 36.5° C., the contents of the well were transferred to a well in a Millititer HA microfiltration plate (Millipore Corp., Bedford, Mass.). The TCA insoluble proteins were precipitated onto the filter disc by a 10 min fixation with 5% TCA, followed by filtration under vacuum and three 10 minute rinse with 95% ethanol. The filters were dried at room temperature, cut from the milltitier plate and transferred to scintillation vials. TCA precipitable counts were assayed in 5 ml of Scintisol (Isolab, Akron, Ohio). The inhibitory activity of a compound was plotted versus the concentration and an IC50 value (that concentration of the compound required to decrease cellular translational activity by 50%) was derived for each compound.

HSV-2 (strain MS) = experiment: HSV-β-GAL assay (transient expression of beta galactosidase in transfected HeLa cells superinfected with HSV-2); format: cell-based; details: HeLa cells transfected with pON 245^ori-, moi=5 pfu/cell, more than one number = additional tests; for IC50: Human alphaherpesvirus 2, HeLa, 24 h, read-out: ANTI-HSV ACTIVITY HSV-β-GAL ASSAY IC50
Method: HeLa and Vero cell cultures were maintained in Eagles Minimal Essential Medium which was supplemented with glutamine, penicillin, streptomycin and 10% fetal calf serum (10% EMEM). Stock cultures of HSV-2 (strain MS available from ATCC VR-540) were grown in and harvested from Vero cells. Viral stocks were titered in Vero cells according to established procedures.
Plasmid pON 245^ori- contains the promoter of the HSV-1 thymidine kinase (tk) gene located immediately 5' of the E. coli lac Z gene. In this arrangement, the tk promoter controls transcription from the bacterial gene in transient expression assays. Additionally, an SV40 polyadenylation signal is present at the 3' end of the lac Z gene to allow for the efficient translation of the mRNA in eucaryotic cells. The expression of beta galactosidase in a transient assay using pON 245^ori- is dependent upon superinfection of the transfected cells with HSV. […] For example, see U.S. application Ser. No. 07/435,491 filed Sep. 5, 1989, the disclosure of which is incorporated herein by reference thereto.
HeLa cells were seeded into 96 well microtiter plates and allowed to grow to 80% confluency (approximately 35000 cells/well). One half microgram of plasmid pON 245^ori- DNA was introduced into the cells of each well by the […] precipitation technique (Grahman and Van der Eb, 1973). Four to six hours later, the cells were rinsed with Hank's Balanced Salt Solution (HBSS), overlaid with 10% EMEM and incubated at 37° C. At 24 hrs post-transfection, cells were rinsed, overlaid with 10% EMEM again and re-incubated at 37° C. At 48 hrs. post-transfection, cells were rinsed and overlaid with either EMEM containing 2% fetal calf serum (2% EMEM), 2% EMEM containing HSV-2 (strain MS, Multiplicity of Infection [moi]=5 pfu/cell) or 2% EMEM containing HSV-2 and the appropriate concentration of the compound to be tested. Twenty-four hrs later, the cells were harvested and assayed for beta galactosidase activity as described below.
All determinations of beta galactosidase activity were performed in 96 well microtiter plates. The intracellar level of beta galactosidase activity in each well was determined from cell lysates of the monolayer cultures. Aliquots were assayed by incubation in the presence of beta galactosidase substrate, 4-methylumbelliferyl-β-D-galactoside (MUG, 125 ug/ml, Sigma), for 2 hrs. The generation of fluorescent product was quantified on a Microfluor microfluorimeter (Dynatech) after addition of 0.1M glycine, pH 10.3 (Spaete and Mocarski, 1985). The inhibitory activity of a compound was plotted versus the concentration and an IC50 value (the concentration of compound required to reduce beta glactosidase expression by 50%) was obtained for each compound tested.

HSV-2, strain MS = experiment: In vivo anti-HSV efficacy, prophylactic guinea pig model of HSV infection; details: 60 mg per kg subcutaneously, T.I.D., 10 days, first dose 24 hrs before infection
Method: The in vivo assessment of anti-HSV efficacy was determined in the prophylactic guinea pig model of HSV infection described by Stansberry et al (1982). Dosing of guinea pigs was comprised of an initial treatment with test compound given 24 hrs prior to virus infection and subsequent administration of the compound every eight hours (T.I.D.) for a total of 10 days. Test compounds were administered subcutaneously in 0.5% buffered methyl cellulose at a dose of 60 mg per kg body weight of the animal. Animals were monitored daily for the developement of genital lesions and neurological symptomology, both of which were recorded and compared to the results obtained with parallel groups which received placebo or acyclovir treatment. Efficacy was evaluated for each compound by scoring the ability of the compound to ameliorate genital lesions produced by infection with HSV-2, strain MS, expressed as Maximum Lesion scores (MLS) on a scale of 1 (least lesions) to 4 (severe lesions).

| Compound | CC50 at 24 h [1] [µg/mL] | IC50 (HSV-2 (strain MS)) [µg/mL] | ANTI-HSV ACTIVITY HSV-β-GAL ASSAY IC50 (HSV-2 (strain MS); 24 hrs) [µg/mL] | In-vivo anti-HSV activity (genital lesions, Maximum Lesion score) (HSV-2, strain MS) |
| --- | --- | --- | --- | --- |
| CN1C(=O)C(=NO)C(=O)c2ccccc21 [Formula 1.02] | 27 | 7 |  |  |
| O=C1C(=NO)C(=O)N(Cc2ccccc2)c2ccccc21 [Formula 1.03] | 40 | 7 |  |  |
| CCCCCCCN1C(=O)C(=NO)C(=O)c2ccccc21 [Formula 1.04] | 37 | < 3 | 2.5 | inactive |
